Experimental data as given in patent US8735425B2, “Tetrahydroisoquinoline derivative” (Daiichi Sankyo Company, Limited, priority 2008, dated 2014).

Key:
DGAT1 enzyme = molecular target: T1, DGAT1 enzyme (Homo sapiens, UniProt O75907); assay: DGAT1 inhibitory activity test; type: biochemical; conditions: test compound concentration of 0.05 μg/ml; read-out: Inhibitory Rate
T1 construct: made in house
T1 sequence (O75907 1-488): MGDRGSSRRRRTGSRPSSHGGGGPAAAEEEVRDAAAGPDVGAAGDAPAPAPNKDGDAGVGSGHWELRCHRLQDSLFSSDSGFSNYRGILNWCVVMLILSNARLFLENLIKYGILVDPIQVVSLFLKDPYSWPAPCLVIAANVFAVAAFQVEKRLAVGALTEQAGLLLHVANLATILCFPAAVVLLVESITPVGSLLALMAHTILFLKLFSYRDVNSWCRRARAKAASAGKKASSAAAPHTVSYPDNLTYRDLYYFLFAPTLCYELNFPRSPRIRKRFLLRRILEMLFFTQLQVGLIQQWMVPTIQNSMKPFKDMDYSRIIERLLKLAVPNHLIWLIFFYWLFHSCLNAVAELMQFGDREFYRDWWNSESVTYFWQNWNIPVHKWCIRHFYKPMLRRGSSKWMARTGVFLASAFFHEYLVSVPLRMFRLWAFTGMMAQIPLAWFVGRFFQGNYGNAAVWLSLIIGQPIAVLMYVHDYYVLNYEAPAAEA
Method in brief: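 Reaction at 23° C for 30 min in 175 mM Tris-HCl pH 8.0, 8 mM MgCl2, 1 mg/ml BSA, 0.5% Triton X-100 with 0.3 mM 1,2-dioleoyl-sn-glycerol and 10 μM [14C]-oleoyl-CoA. Triglyceride extracted into heptane, separated by TLC, radioactivity quantified; % inhibition versus vehicle control, 0-min background subtracted.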

Male C57BL/6N mice = assay: Triglyceride absorption suppression after fat loading (in vivo DGAT1 inhibitory effect); conditions: Mus musculus, po; dose of 10 mg/kg or lower, orally administered, mice fasted overnight, plasma triglyceride after fat loading; read-out: Triglyceride absorption suppressive activity
Procedure: The DGAT1 enzyme is important for the digestion and absorption of triglycerides, and the inhibition of DGAT1 in the small intestine suppresses the absorption of triglycerides. The in vivo activity of its DGAT1 inhibitory effect was evaluated with the suppressed absorption of triglycerides after fat loading as an index. Male C57BL/6N mice (7-12 weeks old, body weight: 17-25 g, Charles River Laboratories Japan Inc.) fasted overnight were assigned to Vehicle group 1, Vehicle group 2, and each test compound group, to which a vehicle (0.5% methylcellulose) or each test compound (1 to 10 mg/kg) suspended in vehicle was orally administered (5 mL/kg). After a given time, a lipoprotein lipase inhibitor (Pluronic-F127: Sigma-Aldrich Corp., 1 g/kg, 20% by weight dissolved in saline) was intraperitoneally administered (5 mL/kg) to each group. Immediately thereafter, distilled water for the Vehicle group 1 or a 20% fat-containing emulation (Intralipid 20%: TERUMO CORP., Japan) for the Vehicle group 2 and the compound groups were orally administered thereto (0.2 mL/mouse). After a given time of 1 to 4 hours after administration, blood was collected from the tail vein or the right ventricle, and plasma was immediately separated and collected. Then, the triglyceride concentration in plasma was measured using a commercially available kit (Triglyceride E-Test Wako: Wako Pure Chemical Industries, Ltd.). In this method, the administration of the lipoprotein lipase inhibitor suppresses the hydrolysis of triglycerides in the blood such that the triglycerides are accumulated in the blood. These triglycerides are derived from two origins: exogenous triglycerides absorbed in the gastrointestinal tract and endogenous triglycerides released from the liver. The triglyceride absorption suppressive activity of each test compound was calculated based on the equation shown below by removing the influence of the endogenous triglycerides. In this context, each test compound was separately confirmed to have no influence on the concentration of the endogenous triglycerides.
Triglyceride absorption suppressive activity (%)=100−[(Triglyceride concentration of each test compound group)−(Triglyceride concentration of Vehicle group 1)]/[(Triglyceride concentration of Vehicle group 2)−(Triglyceride concentration of Vehicle group 1)]×100

inhibition at 0.05 µg/mL (DGAT1 enzyme)	SMILES	inhibition in vivo at up to 10 mg/kg (Male C57BL/6N mice)
≥ 50%	O=C(O)C[C@H]1CC[C@H](OC(=O)N2CCc3cc(NC(=O)Nc4cc(F)c(F)cc4F)ccc3C2)CC1 [Example 31, trans-6-[3-(2,4,5-trifluoro-phenyl)-ureido]-3,4-dihydro-1H-isoquinoline-2-carboxylic acid 4-carboxymethyl-cyclohexyl ester]	≥ 60%
≥ 50%	O=C(O)C[C@H]1CC[C@H](OC(=O)N2CCc3cc(NC(=O)Nc4cc(F)c(F)c(F)c4)ccc3C2)CC1 [Example 32, trans-6-[3-(3,4,5-trifluoro-phenyl)-ureido]-3,4-dihydro-1H-isoquinoline-2-carboxylic acid 4-carboxymethyl-cyclohexyl ester]	≥ 60%
≥ 50%	O=C(Nc1ccc2c(c1)CCN(C(=O)O[C@H]1CC[C@H](Cc3noc(=O)[nH]3)CC1)C2)Nc1ccccc1F [Example 41, trans-6-[3-(2-fluoro-phenyl)-ureido]-3,4-dihydro-1H-isoquinoline-2-carboxylic acid 4-(5-oxo-4,5-dihydro-[1,2,4]oxadiazol-3-ylmethyl)-cyclohexyl ester]	≥ 60%
≥ 50%	O=C(Nc1ccc2c(c1)CCN(C(=O)O[C@H]1CC[C@H](Cc3cc(O)no3)CC1)C2)Nc1ccccc1F [Example 43, trans-6-[3-(2-fluoro-phenyl)-ureido]-3,4-dihydro-1H-isoquinoline-2-carboxylic acid 4-(3-hydroxy-isoxazol-5-ylmethyl)-cyclohexyl ester]	≥ 60%
≥ 50%	O=C(Nc1ccc2c(c1)CCN(C(=O)O[C@H]1CC[C@H](Cc3nn[nH]n3)CC1)C2)Nc1ccccc1F [Example 44, trans-6-[3-(2-fluoro-phenyl)-ureido]-3,4-dihydro-1H-isoquinoline-2-carboxylic acid 4-(2H-tetrazol-5-ylmethyl)-cyclohexyl ester]	≥ 60%
≥ 50%	O=C(Nc1ccc2c(c1)CCN(C(=O)O[C@H]1CC[C@H](CC(=O)OC[C@@H](O)CO)CC1)C2)Nc1ccccc1F [Example 45, trans-6-[3-(2-fluoro-phenyl)-ureido]-3,4-dihydro-1H-isoquinoline-2-carboxylic acid 4-((S)-2,3-dihydroxy-propoxycarbonylmethyl)-cyclohexyl ester]	≥ 60%
≥ 50%	O=C(O)C[C@H]1CC[C@H](OC(=O)N2CCc3cc(Nc4nc5ccc(Cl)cc5o4)ccc3C2)CC1 [Example 47, trans-6-(6-chloro-benzoxazol-2-ylamino)-3,4-dihydro-1H-isoquinoline-2-carboxylic acid 4-carboxymethyl-cyclohexyl ester]	≥ 60%
≥ 50%	CCOc1ccc(C)cc1NC(=O)Nc1ccc2c(c1)CCN(C(=O)O[C@H]1CC[C@H](CC(=O)O)CC1)C2 [Example 48, trans-6-[3-(2-ethoxy-5-methyl-phenyl)-ureido]-3,4-dihydro-1H-isoquinoline-2-carboxylic acid 4-carboxymethyl-cyclohexyl ester]	≥ 60%
≥ 50%	COc1cccc(NC(=O)Nc2ccc3c(c2)CCN(C(=O)O[C@H]2CC[C@H](CC(=O)O)CC2)C3)c1 [Example 49, trans-6-[3-(3-methoxy-phenyl)-ureido]-3,4-dihydro-1H-isoquinoline-2-carboxylic acid 4-carboxymethyl-cyclohexyl ester]	≥ 60%
≥ 50%	O=C(O)C[C@H]1CC[C@H](OC(=O)N2CCc3cc(NC(=O)Nc4ccccc4)ccc3C2)CC1 [Example 50, trans-6-(3-phenyl-ureido)-3,4-dihydro-1H-isoquinoline-2-carboxylic acid 4-carboxymethyl-cyclohexyl ester]	≥ 60%
≥ 50%	O=C(O)C[C@H]1CC[C@H](OC(=O)N2CCc3cc(NC(=O)Nc4cccc(OC(F)F)c4)ccc3C2)CC1 [Example 51, trans-6-[3-(3-difluoromethoxy-phenyl)-ureido]-3,4-dihydro-1H-isoquinoline-2-carboxylic acid 4-carboxymethyl-cyclohexyl ester]	≥ 60%
≥ 50%	O=C(O)C[C@H]1CC[C@H](OC(=O)N2CCc3cc(NC(=O)Nc4cccc(OC(F)(F)F)c4)ccc3C2)CC1 [Example 52, trans-6-[3-(3-trifluoromethoxy-phenyl)-ureido]-3,4-dihydro-1H-isoquinoline-2-carboxylic acid 4-carboxymethyl-cyclohexyl ester]	≥ 60%
≥ 50%	CCOc1cccc(NC(=O)Nc2ccc3c(c2)CCN(C(=O)O[C@H]2CC[C@H](CC(=O)O)CC2)C3)c1C [Example 53, trans-6-[3-(3-ethoxy-2-methyl-phenyl)-ureido]-3,4-dihydro-1H-isoquinoline-2-carboxylic acid 4-carboxymethyl-cyclohexyl ester]	≥ 60%
≥ 50%	CCOc1cc(NC(=O)Nc2ccc3c(c2)CCN(C(=O)O[C@H]2CC[C@H](CC(=O)O)CC2)C3)ccc1C [Example 54, trans-6-[3-(3-ethoxy-4-methyl-phenyl)-ureido]-3,4-dihydro-1H-isoquinoline-2-carboxylic acid 4-carboxymethyl-cyclohexyl ester]	≥ 60%
≥ 50%	CCOc1ccc(C)c(NC(=O)Nc2ccc3c(c2)CCN(C(=O)O[C@H]2CC[C@H](CC(=O)O)CC2)C3)c1 [Example 55, trans-6-[3-(5-ethoxy-2-methyl-phenyl)-ureido]-3,4-dihydro-1H-isoquinoline-2-carboxylic acid 4-carboxymethyl-cyclohexyl ester]	≥ 60%
≥ 50%	COc1cc(F)cc(NC(=O)Nc2ccc3c(c2)CCN(C(=O)O[C@H]2CC[C@H](CC(=O)O)CC2)C3)c1 [Example 56, trans-6-[3-(3-fluoro-5-methoxy-phenyl)-ureido]-3,4-dihydro-1H-isoquinoline-2-carboxylic acid 4-carboxymethyl-cyclohexyl ester]	≥ 60%
≥ 50%	O=C(O)C[C@H]1CC[C@H](OC(=O)N2CCc3cc(NC(=O)Nc4ccc(F)c(F)c4)ccc3C2)CC1 [Example 57, trans-6-[3-(3,4-difluoro-phenyl)-ureido]-3,4-dihydro-1H-isoquinoline-2-carboxylic acid 4-carboxymethyl-cyclohexyl ester]	≥ 60%
≥ 50%	COc1cc(NC(=O)Nc2ccc3c(c2)CCN(C(=O)O[C@H]2CC[C@H](CC(=O)O)CC2)C3)ccc1F [Example 58, trans-6-[3-(4-fluoro-3-methoxy-phenyl)-ureido]-3,4-dihydro-1H-isoquinoline-2-carboxylic acid 4-carboxymethyl-cyclohexyl ester]	≥ 60%
≥ 50%	CCOc1cc(NC(=O)Nc2ccc3c(c2)CCN(C(=O)O[C@H]2CC[C@H](CC(=O)O)CC2)C3)ccc1F [Example 59, trans-6-[3-(3-ethoxy-4-fluoro-phenyl)-ureido]-3,4-dihydro-1H-isoquinoline-2-carboxylic acid 4-carboxymethyl-cyclohexyl ester]	≥ 60%
≥ 50%	COc1ccc(F)c(NC(=O)Nc2ccc3c(c2)CCN(C(=O)O[C@H]2CC[C@H](CC(=O)O)CC2)C3)c1 [Example 60, trans-6-[3-(2-fluoro-5-methoxy-phenyl)-ureido]-3,4-dihydro-1H-isoquinoline-2-carboxylic acid 4-carboxymethyl-cyclohexyl ester]	≥ 60%
